Columns and labels:
[1] = test system: Ovariectomized (OVX) Rats; test: Action of increasing bone mass in ovariectomized (OVX) rats, 8 weeks; assay type: in vivo, rat; details: for Bone mineral density: OVX female SD rats, right femur, s.c. once daily, 5 days weekly, 8 weeks from 4 weeks postoperatively, DHT 10 mg/kg, Ex. 23 30 mg/kg, Mean ± SD
Description: Action of Increasing Bone Mass in Ovariectomized (OVX) Rats
Ovariectomy was performed in 12-week-old female SD rats. […] In an OVX control group (Vehicle), dimethyl sulfoxide diluted with olive oil was used for the test. […] On the next day after final administration, the right femur was removed, and fixed overnight in a 10% neutrally buffered formalin solution.

[2] = test system: Orchiectomized (ORX) Rats; test: Action of increasing prostate weight and bone mass in orchiectomized (ORX) rats, 4 weeks; assay type: in vivo, rat; details: for Bone mineral density / Prostate weight: ORX SD rats, s.c. once daily, 5 days weekly, 4 weeks, DHT 10 mg/kg, Ex. 23 30 mg/kg, Mean ± SD; for Bone mineral density: right femur
Description: Orchiectomy was performed in 12-week-old male SD rats. […] In an ORX control group (Vehicle), dimethyl sulfoxide diluted with olive oil was used for the test. […] On the next day after final administration, the wet weight of the ventral prostate was measured to evaluate the AR agonistic effect of the compound of the present invention. On the next day following final administration, moreover, the right femur was removed, and fixed overnight in a 10% neutrally buffered formalin solution.

[3] = test system: Orchiectomized (ORX) Rats; test: Action of increasing prostate weight in orchiectomized (ORX) rats, 8 days; assay type: in vivo, rat; details: for Weight of prostate: ORX SD rats, s.c. once daily for 8 days, DHT 10 mg/kg, Ex. 23 30 mg/kg, ventral prostate wet weight, Mean ± SD
Description: Testes were removed from 8-week-old male SD rats. […] In an ORX control group (Vehicle), dimethyl sulfoxide diluted with olive oil was used for the test. […] On the next day after final administration, the wet weight of the ventral prostate was measured to evaluate the AR agonistic effect of the compound of the present invention.

[4] = biological target: T1, Rat Androgen Receptors (Rat AR) (Rattus norvegicus, UniProt P15207); test: Test for competitive binding to rat androgen receptors (3H-testosterone displacement, prostate AR fraction); details: RBA=100×(IC50 of hydroxyflutamide)/(IC50 of the compound)
T1 construct: from tissue; host or cells: prostate of orchiectomized 11-week-old male SD rats (100,000 x g supernatant of the homogenate)
T1 sequence (P15207 1-902): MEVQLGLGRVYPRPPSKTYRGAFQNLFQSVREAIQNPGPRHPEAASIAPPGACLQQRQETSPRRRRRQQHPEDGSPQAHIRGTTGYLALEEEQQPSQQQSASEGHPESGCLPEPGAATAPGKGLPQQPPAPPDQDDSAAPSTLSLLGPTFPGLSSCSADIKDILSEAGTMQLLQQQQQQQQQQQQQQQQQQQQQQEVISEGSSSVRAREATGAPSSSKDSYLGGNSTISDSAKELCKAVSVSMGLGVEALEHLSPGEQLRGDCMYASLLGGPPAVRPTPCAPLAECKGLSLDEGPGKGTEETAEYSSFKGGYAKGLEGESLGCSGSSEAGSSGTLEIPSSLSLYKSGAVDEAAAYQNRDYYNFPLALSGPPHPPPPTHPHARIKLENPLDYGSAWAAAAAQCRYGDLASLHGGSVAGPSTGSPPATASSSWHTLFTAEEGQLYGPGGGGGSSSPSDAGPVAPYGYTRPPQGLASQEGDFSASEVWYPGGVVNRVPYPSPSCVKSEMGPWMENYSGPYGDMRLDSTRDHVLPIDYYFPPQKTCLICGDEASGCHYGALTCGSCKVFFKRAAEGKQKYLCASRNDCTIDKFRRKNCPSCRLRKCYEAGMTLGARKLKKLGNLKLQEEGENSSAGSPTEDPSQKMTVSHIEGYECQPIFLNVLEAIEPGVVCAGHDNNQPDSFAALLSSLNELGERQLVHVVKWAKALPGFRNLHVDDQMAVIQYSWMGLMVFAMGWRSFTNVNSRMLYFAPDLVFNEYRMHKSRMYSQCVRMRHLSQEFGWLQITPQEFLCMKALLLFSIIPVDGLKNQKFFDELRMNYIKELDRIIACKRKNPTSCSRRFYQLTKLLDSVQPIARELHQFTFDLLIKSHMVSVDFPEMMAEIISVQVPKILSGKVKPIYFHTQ
Description: Test for Competitive Binding to Rat Androgen Receptors (Rat AR)
Preparation of rat AR fraction: Prostates were harvested into ice-cooled ET buffer (10 mM Tris, 1 mM EDTA, 5 mM DTT, 10 mM sodium molybdate, pH 7.4) 3 days after orchiectomy in 11-week-old male SD rats. The prostate was finely cut, and ET buffer was added, whereafter the mixture was homogenized using a homogenizer. The homogenate was ultracentrifuged (100,000×g, 60 min, 4° C.), and the supernatant was used as a rat AR fraction (hereinafter referred to as ARF).
Binding test: ^3H-testosterone (hereinafter referred to as ^3H-T) was diluted with ET buffer. Dihydrotestosterone (DHT) was prepared so as to have a concentration (final concentration 1 μM) 400 times the maximum concentration of ^3H-T (2.5 nM). The ^3H-T solution was added to a 1.5 ml tube containing DHT, no DHT, or the test compound with a varying concentration. Further, 200 μg ARF was added to adjust the final volume to 100 μl. The mixture was incubated for 2 hours at 4° C., and then 300 μl of a 0.05% dextran T70-1.0% activated carbon solution was added. The mixture was further incubated for 15 minutes in ice to remove the free ^3H-T. After centrifugation (4° C., 2,500 rpm, 5 min), 275 μl of the supernatant was harvested into a liquid scintillation vial, and 2 ml of clear-sol was added. The mixture was stirred, allowed to stand, and measured for ^3H radioactivity with a liquid scintillation counter. […]
a: Radioactivity of the sample incorporating the compound of the present invention (^3H-T+compound) b: Radioactivity of the sample free from the compound of the present invention (only ^3H-T: amount of total binding) c: Radioactivity of the sample incorporating DHT (^3H-T+DHT: amount of nonspecific binding) The relative binding inhibition rate (RBA: Relative Binding Affinity) was obtained from the following equation (Endocrinology 138, 863-870, 1997): […]

male rats = test: AR antagonistic effect: inhibition of testosterone propionate-induced prostate weight increase; assay type: in vivo, rat; details: suggested by a Test Example; no data given
Description: Testes were removed from male rats. From 5 days postoperatively, testosterone propionate and the compound of the present invention were simultaneously administered once daily for one consecutive week by the subcutaneous route. On the next day after final administration, the wet weight of the ventral prostate was measured to evaluate the AR antagonistic effect of the compound of the present invention based on its inhibitory action on testosterone propionate-induced prostate weight increase.

C[C@]12CCC(=O)C[C@@H]1CC[C@@H]1[C@@H]2CC[C@]2(C)[C@@H](O)CC[C@@H]12 [DHT, dihydrotestosterone, reference compound]
Bone mineral density [1]: 120.8 ± 4.4 mg/cm^2
Bone mineral density [2]: 130 ± 7 mg/cm^2
Prostate weight [2]: 150 ± 14 mg/body weight 100 g
Weight of prostate [3]: 68 ± 16 mg/body weight (100 g)

CC(=O)OCC(C)(C)C1CC(N(C)C)c2cc([N+](=O)[O-])ccc2N1 (centres unmarked) [Example 9, Acetic acid 2-(4-dimethylamino-6-nitro-1,2,3,4-tetrahydroquinolin-2-yl)-2-methyl-propyl ester]
RBA (Relative Binding Affinity) [4]: 79

CN(C)C1CC(C(C)(C)COC(=O)c2ccc(F)cc2)Nc2ccc([N+](=O)[O-])cc21 (centres unmarked) [Example 11, 4-Fluorobenzoic acid 2-(4-dimethylamino-6-nitro-1,2,3,4-tetrahydroquinolin-2-yl)-2-methyl-propyl ester]
RBA (Relative Binding Affinity) [4]: 98

CN(C)C1CC(C(C)(C)CO)Nc2ccc([N+](=O)[O-])cc21 (centres unmarked) [Example 23, 2-(4-dimethylamino-6-nitro-1,2,3,4-tetrahydroquinolin-2-yl)-2-methylpropan-1-ol]
Bone mineral density [1]: 120.9 ± 3.9 mg/cm^2
Effect on bone mineral density (in words) ([1]; OVX rats, administered for 8 weeks, 30 mg/kg s.c.): significantly increased the bone mineral density
Bone mineral density [2]: 134 ± 6 mg/cm^2
Prostate weight [2]: 78 ± 10 mg/body weight 100 g
Effect on atrophied prostate (in words) ([2]; ORX rats, administered for 4 weeks, 30 mg/kg s.c.): restored the atrophied prostate up to the level of the normal control
Effect on bone mineral density (in words) ([2]; ORX rats, administered for 4 weeks, 30 mg/kg s.c., vs control group): significantly increased the decreased bone mineral density
Weight of prostate [3]: 52 ± 12 mg/body weight (100 g)
Effect on prostate weight (in words) ([3]; ORX rats, consecutively administered for 8 days, 30 mg/kg s.c.): significantly increased prostate weights in comparison with the ORX control

CC(C)(CO)C1CC(NCc2ccccc2)c2cc([N+](=O)[O-])ccc2N1 (centres unmarked) [Example 30, 2-(4-Benzylamino-6-nitro-1,2,3,4-tetrahydroquinolin-2-yl)-2-methylpropan-1-ol]
RBA (Relative Binding Affinity) [4]: 370

CCCN(CCC)C1CC(C(C)(C)CO)Nc2ccc([N+](=O)[O-])cc21 (centres unmarked) [Example 33, 2-(4-Di-n-propylamino-6-nitro-1,2,3,4-tetrahydroquinolin-2-yl)-2-methylpropan-1-ol]
AR antagonistic effect (in words) (male rats): AR antagonist

CC(C)(O)C(=O)Nc1ccc([N+](=O)[O-])c(C(F)(F)F)c1 [Hydroxyflutamide, reference compound]
RBA (Relative Binding Affinity) [4]: 100

From US6777427B2, “Tetrahydroquinoline compounds” (priority 2000, dated 2004)
